Assay results from patent US20230093099A1, “COMPOUNDS AND METHODS OF TREATING CANCERS” (CULLGEN (SHANGHAI), INC., priority 2019, published 2023).

Assays:
Format in all cases: cell-based
NCI-H929 cells = assay: Cell viability assay (CellTiter-Glo) in NCI-H929 cells; conditions: Homo sapiens, 72 h, NCI-H929, Multiple Myeloma, 3 days
Experimental: (§1) MV4;11, RS4;11, Kasumi-1, HEL and other cells were treated with NVP-BSK805, TG101209 or selected degraders for 3 days at indicated concentrations following a 3-fold serial dilution.
(§2) HEL, RS4;11, MV4;11, Kasumi-1 and other cells were cultured at 37° C. with 5% CO2 in RPMI 1640 or DMEM Medium supplemented with 10% fetal bovine serum. Cells were authenticated using the short tandem repeat (STR) assays. Mycoplasma test results were negative.
(§3) Cells were seeded at a density of 5000 cells per well in 96-well assay plates and treated with test compounds following a 8-point or 12-point 3-fold serial dilution. Three days later, cell viability was determined using the CellTiter-Glo assay kit according to the manufacturer's instructions. The dose-response curves were determined and IC50 values were calculated using the GraphPad Prism software following a nonlinear regression (least squares fit) method.

SU-DHL-1 cells = assay: Cell viability assay (CellTiter-Glo) in SU-DHL-1 cells; conditions: Homo sapiens, 72 h, SU-DHL-1, large cell lymphoma, 3 days
Experimental: as §1, §2, §3

p-STAT5 = assay: Immunoblot of p-STAT5 (downstream signaling) in HEL cells; conditions: immunoblot (FIG. 1)
Experimental: To confirm JA-189 and JA-213 are true JAK degraders, HEL cell were treated with these two compounds at various compounds concentrations.
as §2
(§4) Rabbit anti-JAK1 antibody (3344S), anti-JAK2 antibody (3230S), anti-JAK3 antibody (8827S), anti-TYK2 antibody (14193S), anti-FLT3 antibody (3462S), anti-RET antibody (14556S), anti-phospho-STAT3 (Tyr705) antibody (9145S) and anti-phospho-STAT5 (Tyr694) antibody (4322S) were purchased from Cell Signaling Technology. Rabbit anti-GSPT1 antibody (ab126090) was purchased from Abcam. HRP-conjugated anti-α-tubulin antibody was produced in house. Media and other cell culture reagents were purchased from Thermo Fisher. The CellTiter-Glo Luminescent Assay kit was purchased from Promega.
Cultured cells were washed with cold PBS once and lysed in cold RIPA buffer supplemented with protease inhibitors and phosphatase inhibitors (Beyotime Biotechnology). […] Total protein concentrations in the lysates were determined by BCA assays (Beyotime Biotechnology). […] Protein bands were quantitated using the accompanied software provided by Bio-Rad.

JAK1 = biological target: T1, JAK1 (Homo sapiens, UniProt P23458); assay: Immunoblot of JAK1 protein level in RS4;11 cells; conditions: 24 hours; for JAK1 protein level: immunoblot (FIG. 2)
T1 construct: immunoblot of JAK1/3 proteins expressed in RS4;11 cells; endogenous in cells; host or cells: RS4;11 cells
Experimental: RS4;11 cells were treated with compounds at indicated concentrations for 24 hours. […] The concentrations required to reduce JAK1 by 50% (DC50) were below 5 nM and 35 nM for compound JA-189 and JA213, respectively.
as §2, §4
Cultured cells were washed with cold PBS once and lysed in cold RIPA buffer supplemented with protease inhibitors and phosphatase inhibitors (Beyotime Biotechnology). The solutions were then incubated at 4° C. for 30 minutes with gentle agitation to fully lyse cells. Cell lysates were centrifuged at 13,000 rpm for 10 minutes at 4° C. and pellets were discarded. Total protein concentrations in the lysates were determined by BCA assays (Beyotime Biotechnology). Cell lysates were mixed with Laemmli loading buffer to 1× and heated at 99° C. for 5 min. Proteins were resolved on SDS-PAGE and visualized by chemiluminescence. Images were taken by a ChemiDoc MP Imaging system (Bio-Rad). Protein bands were quantitated using the accompanied software provided by Bio-Rad.

AMO-1 cells = assay: Cell viability assay (CellTiter-Glo) in AMO-1 cells; conditions: Homo sapiens, AMO1, 72 h, AMO-1, Multiple Myeloma, 3 days
Experimental: as §1, §2, §3

Pfeiffer cells = assay: Cell viability assay (CellTiter-Glo) in Pfeiffer cells; conditions: Homo sapiens, 72 h, DLBCL, 3 days
Experimental: as §1, §2, §3

CCRF-CEM cells = assay: Cell viability assay (CellTiter-Glo) in CCRF-CEM cells; conditions: Homo sapiens, 72 h, T-ALL, 3 days
Experimental: as §1, §2, §3

MEG-01 cells = assay: Cell viability assay (CellTiter-Glo) in MEG-01 cells; conditions: Homo sapiens, 72 h, MEG-01, CML, 3 days
Experimental: as §1, §2, §3

WSU-DLCL2 cells = assay: Cell viability assay (CellTiter-Glo) in WSU-DLCL2 cells; conditions: Homo sapiens, WSUDLCL2, 72 h, WSU-DLCL2, DLBCL, 3 days
Experimental: as §1, §2, §3

NOMO-1 cells = assay: Cell viability assay (CellTiter-Glo) in NOMO-1 cells; conditions: Homo sapiens, 72 h, NOMO-1, AML, 3 days
Experimental: as §1, §2, §3

MOLT-4 cells = assay: Cell viability assay (CellTiter-Glo) in MOLT-4 cells; conditions: Homo sapiens, 72 h, MOLT-4, T-ALL, 3 days
Experimental: as §1, §2, §3

MOLM-13 cells = assay: Cell viability assay (CellTiter-Glo) in MOLM-13 cells; conditions: Homo sapiens, 72 h, MOLM-13, AML, 3 days
Experimental: as §1, §2, §3

HL-60 cells = assay: Cell viability assay (CellTiter-Glo) in HL-60 cells; conditions: Homo sapiens, 72 h, HL-60, APL, 3 days
Experimental: as §1, §2, §3

T1 sequence (P23458 whole entry): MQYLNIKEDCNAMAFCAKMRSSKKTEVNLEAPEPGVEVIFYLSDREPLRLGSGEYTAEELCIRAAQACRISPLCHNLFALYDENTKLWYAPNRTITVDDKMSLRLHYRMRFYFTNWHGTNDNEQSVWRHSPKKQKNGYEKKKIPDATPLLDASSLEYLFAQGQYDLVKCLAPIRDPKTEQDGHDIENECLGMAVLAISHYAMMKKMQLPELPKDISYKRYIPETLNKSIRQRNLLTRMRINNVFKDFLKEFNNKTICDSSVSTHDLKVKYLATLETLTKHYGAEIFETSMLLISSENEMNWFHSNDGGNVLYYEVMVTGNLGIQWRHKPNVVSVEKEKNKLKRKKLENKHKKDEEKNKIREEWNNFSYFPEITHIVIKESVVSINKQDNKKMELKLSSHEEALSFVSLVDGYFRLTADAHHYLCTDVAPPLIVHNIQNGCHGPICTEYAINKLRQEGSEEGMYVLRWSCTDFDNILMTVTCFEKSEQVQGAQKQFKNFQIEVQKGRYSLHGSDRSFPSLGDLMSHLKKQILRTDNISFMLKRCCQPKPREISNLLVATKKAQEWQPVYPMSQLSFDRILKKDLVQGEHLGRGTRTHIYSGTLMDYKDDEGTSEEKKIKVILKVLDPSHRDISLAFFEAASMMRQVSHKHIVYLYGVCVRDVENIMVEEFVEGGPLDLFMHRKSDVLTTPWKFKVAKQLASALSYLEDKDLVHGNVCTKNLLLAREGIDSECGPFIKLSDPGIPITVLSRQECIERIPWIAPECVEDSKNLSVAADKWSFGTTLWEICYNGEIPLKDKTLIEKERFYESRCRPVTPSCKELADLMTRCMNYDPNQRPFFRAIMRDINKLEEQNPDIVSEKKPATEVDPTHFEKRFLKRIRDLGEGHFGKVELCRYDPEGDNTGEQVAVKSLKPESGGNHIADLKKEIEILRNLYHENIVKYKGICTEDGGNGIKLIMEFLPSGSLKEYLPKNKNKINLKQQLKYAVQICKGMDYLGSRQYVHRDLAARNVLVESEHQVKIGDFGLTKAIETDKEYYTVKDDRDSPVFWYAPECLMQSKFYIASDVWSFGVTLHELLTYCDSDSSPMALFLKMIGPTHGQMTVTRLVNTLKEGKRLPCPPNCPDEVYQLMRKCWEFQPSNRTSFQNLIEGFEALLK

Row | SMILES | IC50 (NCI-H929 cells) | IC50 (SU-DHL-1 cells) | down stream signaling, p-STAT5 band (p-STAT5) | JAK1 protein level (JAK1) | DC50 (JAK1; immunoblot, read-out: concentration required to reduce JAK1 by 50% (DC50)) | IC50 (AMO-1 cells) | IC50 (Pfeiffer cells) | IC50 (CCRF-CEM cells) | IC50 (MEG-01 cells) | IC50 (WSU-DLCL2 cells) | IC50 (NOMO-1 cells) | IC50 (MOLT-4 cells) | IC50 (MOLM-13 cells) | IC50 (HL-60 cells)
1 | O=C1CCC(N2C(=O)c3ccc(NCCCCCC(=O)N4CCC(n5cc(-c6cnc7cccc(-c8cc(F)c(CN9CCOCC9)c(F)c8)c7n6)cn5)CC4)cc3C2=O)C(=O)N1 (stereo not drawn) [JA-189, 5-((6-(4-(4-(8-(3,5-difluoro-4-(morpholinomethyl)phenyl)quinoxalin-2-yl)-1H-pyrazol-1-yl)piperidin-1-yl)-6-oxohexyl)amino)-2-(2,6-dioxopiperidin-3-yl)isoindoline-1,3-dione] | 106 nM | 222 nM | weaker bands of p-STAT3 and p-STAT5 | even better activity in reducing the JAK1 and JAK3 protein levels | < 5 nM | 612 nM | 320 nM | 3.84 nM | 89.2 nM | 106 nM | 53.2 nM | 6.36 nM | 20.8 nM | 2.54 nM
2 | CS(=O)(=O)c1ccc(-c2cccc3nc(Nc4ccc(N5CCN(CC(=O)NCCCCCCCCNc6ccc7c(c6)C(=O)N(C6CCC(=O)NC6=O)C7=O)CC5)cc4)nn23)cc1 (stereo not drawn) [JA-213] | 124 nM | 319 nM | weaker bands of p-STAT3 and p-STAT5 | even better activity in reducing the JAK1 and JAK3 protein levels |  | 722 nM | 266 nM | 19.1 nM | 74 nM | 168 nM | 81.7 nM | 16.5 nM | 27.4 nM | 19.2 nM
